In patent publication US9969742B2, “Imidazotriazinone compounds” (Ironwood Pharmaceuticals, Inc., priority 2012, dated 2018):
Read-outs that look alike come from different tables or passages of the source.

How the values were obtained:
Assay type in all cases: biochemical
PDE1B = target: T1, PDE1B (Homo sapiens, UniProt Q01064); assay: Phosphodiesterase enzyme screening assay, PDE1B
T1 construct: purchased Reaction Biology Corporation, Malvern, Pa
Source text: (§1) Compounds of the invention were screened against PDE1A, PDE1B, PDE2A, PDE3A, PDE3B, PDE4A1A, PDE4B1, PDE4D3, PDE5A1, PDE6C, PDE7A, PDE8A1, PDE9A2, PDE10A2 AND PDE11A isoforms of the phosphodiesterase enzyme to determine activity and overall selectivity through comparative analysis. […] Where 8-methoxy-IBMX and Zaprinast were used as reference inhibitors.
(§2) The phosphodiesterase enzyme isoforms were obtained from a commercial retailer (Reaction Biology Corporation, Malvern, Pa.) for use in the instant screening assay.
(§3) The analysis was completed using the Caliper LabChip 3000 and a 12-sipper LabChip. LabChip assays are separations-based, meaning that the product and substrate are electrophoretically separated, thereby minimizing interferences and yielding the highest data quality available on any screening platform. […] High Z′ values, few false positives, few false negatives and analytical quality reproducibility are the reasons cited for the increasing reliance on the LabChip assays.
(§4) The off-chip incubation mobility-shift phosphodiesterase assay uses a microfluidic chip to measure the conversion of a fluorescent cyclic AMP substrate to a 5′-AMP product, or a cyclic GMP substrate to a 5′-GMP product. The reaction mixture, from a microtiter plate well, is introduced through a capillary sipper onto the chip, where the fluorescent substrate and product are separated by electrophoresis and detected via laser-induced fluorescence. […] The precision of microfluidics allows researchers to detect subtle interactions between drug candidates and therapeutic targets.
(§5) Reactions were carried out in 100 mM HEPES (pH 7.5), 5 mM MgCl2, 1 mM DTT, 0.003% Brij, 4.0 μM cGMP substrate. The reaction was started by addition of cGMP or cAMP and incubated for 1 hour at R.T. The reaction was terminated by the addition of stop buffer containing 100 mM HEPES (pH 7.5), 15 mM EDTA, 0.015% Brij-35, 5% DMSO. Cyclic AMP/GMP substrate and 5′-AMP/5′-GMP product were separated by charge using electrophoretic mobility shift. Product formed was compared to control wells to determine inhibition or enhancement of enzyme activity.
(§6) Data points were averages of quadruplicate wells and error bars represented the SEM for each point.

PDE9A2 = target: T2, PDE9A2 (Homo sapiens, UniProt O76083); assay: Phosphodiesterase enzyme screening assay, PDE9A2; settings: 4.0 μM cGMP substrate, 1 hour at R.T., read-out: Band (PDE9A2 IC50)
T2 construct: purchased Reaction Biology Corporation, Malvern, Pa
Outline: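 Reaction started by adding substrate (4.0 μM cGMP) to recombinant human enzyme in HEPES pH 7.5 buffer with MgCl2, DTT and Brij; 1 h at room temperature; quenched with EDTA-containing stop buffer; product and substrate resolved electrophoretically and quantified by fluorescence relative to uninhibited controls.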

PDE1A = target: T3, PDE1A (Homo sapiens, UniProt P54750); assay: Phosphodiesterase enzyme screening assay, PDE1A
T3 construct: purchased Reaction Biology Corporation, Malvern, Pa
Source text: as §1, §2, §3, §4, §5, §6

[1] = Table 1, ratio of IC50 values, value greater than 1 indicates greater selectivity for PDE9A2

T3 sequence (P54750 whole entry): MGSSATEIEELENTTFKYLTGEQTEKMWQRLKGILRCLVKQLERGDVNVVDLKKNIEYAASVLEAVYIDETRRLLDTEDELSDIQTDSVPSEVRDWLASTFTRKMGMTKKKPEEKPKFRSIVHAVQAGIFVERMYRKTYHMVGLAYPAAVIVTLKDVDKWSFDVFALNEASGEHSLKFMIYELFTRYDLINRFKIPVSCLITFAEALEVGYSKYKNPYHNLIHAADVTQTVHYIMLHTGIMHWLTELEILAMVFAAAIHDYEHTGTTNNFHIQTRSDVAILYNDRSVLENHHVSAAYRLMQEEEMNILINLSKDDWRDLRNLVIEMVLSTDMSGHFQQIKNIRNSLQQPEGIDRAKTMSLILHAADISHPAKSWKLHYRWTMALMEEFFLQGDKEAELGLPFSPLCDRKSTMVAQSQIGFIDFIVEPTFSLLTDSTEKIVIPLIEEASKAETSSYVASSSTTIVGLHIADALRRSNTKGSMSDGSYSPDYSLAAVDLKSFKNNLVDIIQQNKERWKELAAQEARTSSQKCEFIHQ
T2 sequence (O76083 1-533 isoform O76083-2): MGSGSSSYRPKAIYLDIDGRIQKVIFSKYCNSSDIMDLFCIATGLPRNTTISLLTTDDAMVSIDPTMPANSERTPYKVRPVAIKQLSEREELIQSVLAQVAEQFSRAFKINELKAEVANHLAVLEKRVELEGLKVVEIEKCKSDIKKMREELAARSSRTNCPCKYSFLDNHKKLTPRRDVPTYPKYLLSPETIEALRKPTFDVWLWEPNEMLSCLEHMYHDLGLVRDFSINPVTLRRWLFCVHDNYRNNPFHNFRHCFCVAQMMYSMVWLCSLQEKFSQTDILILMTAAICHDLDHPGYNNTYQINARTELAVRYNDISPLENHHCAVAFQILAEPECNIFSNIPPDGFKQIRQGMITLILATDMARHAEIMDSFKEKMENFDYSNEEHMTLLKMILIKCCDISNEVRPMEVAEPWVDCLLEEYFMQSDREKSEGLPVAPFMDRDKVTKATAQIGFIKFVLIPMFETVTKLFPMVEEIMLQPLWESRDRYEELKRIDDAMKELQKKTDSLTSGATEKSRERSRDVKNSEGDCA
T1 sequence (Q01064 whole entry): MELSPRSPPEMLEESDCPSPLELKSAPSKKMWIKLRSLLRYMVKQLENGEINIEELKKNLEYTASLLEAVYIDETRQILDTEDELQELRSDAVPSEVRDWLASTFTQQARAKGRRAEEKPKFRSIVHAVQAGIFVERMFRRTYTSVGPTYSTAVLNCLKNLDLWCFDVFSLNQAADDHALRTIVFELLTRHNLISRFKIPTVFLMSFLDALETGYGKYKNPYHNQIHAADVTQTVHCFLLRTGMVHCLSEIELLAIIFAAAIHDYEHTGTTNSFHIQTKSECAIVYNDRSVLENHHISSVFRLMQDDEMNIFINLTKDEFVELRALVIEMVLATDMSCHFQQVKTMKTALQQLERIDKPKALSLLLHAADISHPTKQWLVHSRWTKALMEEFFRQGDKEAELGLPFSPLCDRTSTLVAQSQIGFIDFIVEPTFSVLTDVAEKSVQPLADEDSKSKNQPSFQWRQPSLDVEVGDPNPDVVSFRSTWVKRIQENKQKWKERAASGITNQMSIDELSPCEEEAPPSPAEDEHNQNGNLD

SMILES	PDE1B selectivity (versus PDE9A2) (PDE1B; [1])	PDE1A selectivity (versus PDE9A2) (PDE1A; [1])	further results
C[C@@H]1CN(Cc2cn3ncccc3n2)C[C@H]1c1nn2c(C3CCOCC3)ncc2c(=O)[nH]1 (relative stereo) [(+)-2-((3,4-trans)-1-(imidazo[1,2-b]pyridazin-2-ylmethyl)-4-methylpyrrolidin-3-yl)-7-(tetrahydro-2H-pyran-4-yl)imidazo[5,1-f][1,2,4]triazin-4(3H)-one]	1413	1005	IC50 (PDE9A2; Table 1, 10 concentrations): < 1 µM
C[C@@H]1CN(Cc2ncccn2)C[C@H]1c1nn2c(C3CCOCC3)ncc2c(=O)[nH]1 (relative stereo) [(+)-2-((3,4-trans)-4-, (+)-2-((3,4-trans)-4-methyl-1-(pyrimidin-2-ylmethyl)pyrrolidin-3-yl)-7-(tetrahydro-2H-pyran-4-yl)imidazo[5,1-f][1,2,4]triazin-4(3H)-one]			PDE1B selectivity (versus PDE9A2) (PDE1B; ratio of IC50 values, PDE1B versus PDE9A2, value greater than 1 = greater selectivity for PDE9A2): 456; IC50 (PDE9A2; Table 3): < 1 µM; PDE1A selectivity (versus PDE9A2) (PDE1A; ratio of IC50 values, PDE1A versus PDE9A2, value greater than 1 = greater selectivity for PDE9A2): 214
CC1CN(Cc2cccc(Cl)c2Cl)CC1c1nn2c(C3CCOCC3)ncc2c(=O)[nH]1 (single isomer, unassigned; (+)) [(+)-2-((3,4-trans)-1-(2,3-dichlorobenzyl)-4-methylpyrrolidin-3-yl)-7-(tetrahydro-2H-pyran-4-yl)imidazo[5,1-f][1,2,4]triazin-4(3H)-one]			PDE1B selectivity (versus PDE9A2) (PDE1B; ratio of IC50 values PDE1B / PDE9A2, value greater than 1 = greater selectivity for PDE9A2): 199; IC50 (PDE9A2): < 1 µM; PDE1A selectivity (versus PDE9A2) (PDE1A; ratio of IC50 values PDE1A / PDE9A2, value greater than 1 = greater selectivity for PDE9A2): 195
CC1CN(Cc2cccc(F)c2F)CC1c1nn2c(C3CCOCC3)ncc2c(=O)[nH]1 (single isomer, unassigned; (+)) [(+)-2-((3,4-trans)-1-(2,3-difluorobenzyl)-4-methylpyrrolidin-3-yl)-7-(tetrahydro-2H-pyran-4-yl)imidazo[5,1-f][1,2,4]triazin-4(3H)-one]	218	159	IC50 (PDE9A2; Table 1, 10 concentrations): < 1 µM
CC1CN(Cc2ccc(Cl)cc2Cl)CC1c1nn2c(C3CCOCC3)ncc2c(=O)[nH]1 (single isomer, unassigned; (+)) [(+)-2-((3,4-trans)-1-(2,4-dichlorobenzyl)-4-methylpyrrolidin-3-yl)-7-(tetrahydro-2H-pyran-4-yl)imidazo[5,1-f][1,2,4]triazin-4(3H)-one]	994	598	IC50 (PDE9A2; Table 1, 10 concentrations): < 1 µM
CC1CN(Cc2cnccn2)CC1c1nn2c(C3CCOCC3)ncc2c(=O)[nH]1 (single isomer, unassigned; (+)) [(+)-2-((3,4-trans)-4-methyl-1-(pyrazin-2-ylmethyl)pyrrolidin-3-yl)-7-(tetrahydro-2H-pyran-4-yl)imidazo[5,1-f][1,2,4]triazin-4(3H)-one]	178	202	
CC1CN(Cc2ncccn2)CC1c1nn2c(C3CCOCC3)ncc2c(=O)[nH]1 (single isomer, unassigned; (+)) [(+)-2-((3,4-trans)-4-methyl-1-(pyrimidin-2-ylmethyl)pyrrolid] [(+)-2-((3,4-trans)-4-methyl-1-(pyrimidin-2-ylmethyl)pyrrolidin-3-yl)-7-(tetrahydro-2H-pyran-4-yl)imidazo[5,1-f][1,2,4]triazin-4(3H)-one]	386	393	
CC1CN(Cc2ncccn2)CC1c1nn2c(C3CCOC3)ncc2c(=O)[nH]1 (single isomer, unassigned; (+)) [(+)-2-((3,4-trans)-4-methyl-1-(pyrimidin-2-ylmethyl)pyrrolid] [(+)-2-((3,4-trans)-4-methyl-1-(pyrimidin-2-ylmethyl)pyrrolidin-3-yl)-7-(tetrahydrofuran-3-yl)imidazo[5,1-f][1,2,4]triazin-4(3H)-one]	58	28	

Second part, led by results:

PDE1B selectivity (versus PDE9A2) (PDE1B; [1])	PDE1A selectivity (versus PDE9A2) (PDE1A; [1])	SMILES	further results
5180	5020	C[C@@H]1CN(Cc2ccc3cccnc3c2)C[C@H]1c1nn2c(C3CCOCC3)ncc2c(=O)[nH]1 (relative stereo) [(+)-2-((3,4-trans)-4-methyl-1-(quinolin-7-ylmethyl)pyrrolidin-3-yl)-7-(tetrahydro-2H-pyran-4-yl)imidazo[5,1-f][1,2,4]triazin-4(3H)-one]	IC50 (PDE9A2; Table 1, 10 concentrations): < 1 µM
1360	973	CC1CN(Cc2ncc3ccccc3n2)CC1c1nn2c(C3CCOCC3)ncc2c(=O)[nH]1 (single isomer, unassigned; (+)) [(+)-2-((3,4-trans)-4-methyl-1-(quinazolin-2-ylmethyl)pyrroli] [(+)-2-((3,4-trans)-4-methyl-1-(quinazolin-2-ylmethyl)pyrrolidin-3-yl)-7-(tetrahydro-2H-pyran-4-yl)imidazo[5,1-f][1,2,4]triazin-4(3H)-one]	
232	177	CC(=O)N1CCC(c2ncc3c(=O)[nH]c(C4CN(Cc5ccccc5)CC4C)nn23)CC1 (single isomer, unassigned; (+)) [(+)-7-(1-acetylpiperidin-4-yl)-2-((3,4-trans)-1-benzyl-4-methylpyrrolidin-3-yl)imidazo[5,1-f][1,2,4]triazin-4(3H)-one]	
313	165	CC1CN(Cc2ncccn2)CC1c1nn2c(C3CCC(F)(F)CC3)ncc2c(=O)[nH]1 (single isomer, unassigned; (+)) [(+)-7-(4,4-difluorocyclohexyl)-2-((3,4-trans)-4-methyl-1-(pyrimidin-2-ylmethyl)pyrrolidin-3-yl)imidazo[5,1-f][1,2,4]triazin-4(3H)-one]	
102	158	Cc1ccc(F)cc1-c1ncc2c(=O)[nH]c(C3CN(Cc4ncccn4)CC3C)nn12 (single isomer, unassigned; (+)) [(+)-7-(5-fluoro-2-methylphenyl)-2-((3,4-trans)-4-methyl-1-(p] [(+)-7-(5-fluoro-2-methylphenyl)-2-((3,4-trans)-4-methyl-1-(pyrimidin-2-ylmethyl)pyrrolidin-3-yl)imidazo[1,5-f][1,2,4]triazin-4(3H)-one]	
1140	1110	CC1CN(Cc2cccc(F)c2)CC1c1nn2c(C3CCOCC3)ncc2c(=O)[nH]1 (single isomer, unassigned; (-)) [(−)-2-((3,4-trans)-1-(3-fluorobenzyl)-4-methylpyrrolidin-3-yl)-7-(tetrahydro-2H-pyran-4-yl)imidazo[5,1-f][1,2,4]triazin-4(3H)-one]	
23	12	CC1CN(C(=O)c2ccc(F)cc2)CC1c1nn2c(C3CCOCC3)ncc2c(=O)[nH]1 (single isomer, unassigned; (-)) [(−)-2-((3,4-trans)-1-(4-fluorobenzoyl)-4-methylpyrrolidin-3-] [(−)-2-((3,4-trans)-1-(4-fluorobenzoyl)-4-methylpyrrolidin-3-yl)-7-(tetrahydro-2H-pyran-4-yl)imidazo[5,1-f][1,2,4]triazin-4(3H)-one]	
32	26	CC1CN(C(=O)c2ccccc2)CC1c1nn2c(C3CCOCC3)ncc2c(=O)[nH]1 (single isomer, unassigned; (-)) [(−)-2-((3,4-trans)-1-benzoyl-4-methylpyrrolidin-3-yl)-7-(tet] [(−)-2-((3,4-trans)-1-benzoyl-4-methylpyrrolidin-3-yl)-7-(tetrahydro-2H-pyran-4-yl)imidazo[5,1-f][1,2,4]triazin-4(3H)-one]	
175	132	Cc1cc(F)ccc1-c1ncc2c(=O)[nH]c(C3CN(Cc4ncccn4)CC3C)nn12 (single isomer, unassigned; (-)) [(−)-7-(4-fluoro-2-methylphenyl)-2-((3,4-trans)-4-methyl-1-(pyrimidin-2-ylmethyl)pyrrolidin-3-yl)imidazo[5,1-f][1,2,4]triazin-4(3H)-one]	
